The values below come from PubChem BioAssay AID624132 (Broad Institute, 2012).

Structures are written as SMILES. Results filed as inconclusive are left out.

The subject of this test is Clone20 osteoblast Shn3 3'UTR firefly luciferase, 24 h. The test can be described thus: reduction of Shn3 3'UTR-driven luciferase in osteoblasts – cell-based, Clone20 osteoblasts, firefly luciferase, cherry-picked, dose response (AID 624132).
One may read the AC50 as the midpoint of the concentration-response curve, whichever way the signal moves. As to `CC(=O)OCC12CC(OC(=O)CC(C)C)C(C)=CC1OC1C(O)C(OC(C)=O)C2(C)C12CO2` (stereo not drawn), the AC50 was under 0.26 µM.
Consider `C[C@H]1[C@@H](OS(=O)(=O)O)C[C@@H]2C[C@H]([C@@H](O)c3cc(=O)[nH]c(=O)[nH]3)NC3=NC[C@H]1N32`, for which the AC50 was 1.32 µM.
Consider `CC1=CC2OC3CC4OC(=O)C=CC=CC(=O)OCCC(C)C(O)C(=O)OCC2(CC1O)C4(C)C31CO1` (stereo not drawn), for which the AC50 is under 0.26 µM.
The figure for `CC1=CC2OC3CC4OC(=O)C=CC=CC(C(C)O)OCC(O)C(C)CC(=O)OCC2(CC1O)C4(C)C31CO1` (stereo not drawn) is under 0.26 µM; for `CC(=O)OC[C@]12CCC(C)=C[C@H]1O[C@@H]1[C@H](O)[C@@H](OC(C)=O)[C@@]2(C)[C@]12CO2` it is under 0.26 µM.
The figure for `CC(=O)OC1CC2OC3C=C(C)CCC3(C)C1(C)C21CO1` (stereo not drawn) is 0.829 µM.
As for `CC(=O)OC1C(=O)OCC23CCC4(C)OC4C2OC2CC(OC(=O)C=CC=CC(=O)OCCC1C)C3(C)C21CO1` (stereo not drawn), the AC50 is under 0.26 µM.
The figure for `CC1=CC2OC3CC4OC(=O)C=CC=CC(C(C)O)OCC(O)C5(C)OC5C(=O)OCC2(CC1O)C4(C)C31CO1` (stereo not drawn) is under 0.26 µM.
